# Laboratory results from publication PMC12703749, “H2O2–Responsive Anticancer Prodrug: Synthesis, Precision Deuteration in Search of In Vivo Metabolites, and Activation Pathway” (Journal of Medicinal Chemistry, 2025).
# Test: In vivo determination of metabolites in urine and feces (HRMS)
# Set-up: species or system athymic nude mice
# Procedure: To elucidate the in vivo activation mechanism of the H2O2-responsive prodrugs 10a and 10b, we investigated their metabolic fate in a xenograft mouse model. MDA-MB-468 tumor-bearing athymic nude mice received an intraperitoneal injection of a 1:1 mixture of 10a (nondeuterated, d 0) and 10b (deuterated, d 5) at equimolar doses (15 mg/kg each; total dose: 30 mg/kg). […] These end-products are consistent with a pathway initiated by H2O2-triggered oxidative deboronation of the boronic acid moiety in 10a/10b to yield phenol intermediates 11a/11b, which can undergo either hydrolysis to alcohols 12a/12b followed by N-demethylation, or direct N-demethylation to 13a/13b (Scheme ). The resulting 13a/13b serve as substrates for UDP-glucuronosyltransferase (UGT)-catalyzed conjugation with uridine diphosphate glucuronic acid, ultimately forming glucuronide conjugates 14a and 14b (Figure and Scheme ). Although intermediates 11a,b-13a,b were not detected in vivo, likely due to their rapid turnover and concentrations below the sensitivity of our LC–MS method, the proposed sequence is strongly supported by complementary cell-culture metabolism studies in which two key intermediates (11a,b and 12a,b) were observed (Figures S8 and S9). Detection of both isotopically labeled and unlabeled metabolites therefore provides robust evidence for H2O2-mediated oxidative deboronation in vivo, with the in vitro findings offering additional mechanistic confirmation.
# Eight-week-old female athymic nude mice (immunodeficient) were anesthetized with isoflurane and subcutaneously inoculated in the flank with 7.5 × 10^6 MDA-MB-468 cells in 100 μL of a 1:1 mixture of Matrigel and Dulbecco’s Modified Eagle Medium (DMEM). Cells were sourced from the American Type Culture Collection (ATCC) and certified free of bloodborne pathogens. Mice were monitored daily for tumor development and weighed weekly. Upon establishment of palpable xenografts (typically one-week postinoculation), animals were randomized into treatment (n = 3) and control (n = 3) groups. For metabolite profiling, mice were individually housed in Labsand-lined cages (Labsand purchased from BrainTree Scientific, inc.). The treatment group received an IP injection of a 1:1 mixture of compounds 10a (d 0) and 10b (d 5) (100 μL) at a combined dose of […], formulated in DMSO/PBS (1×):PEG400 at a ratio of 2:19:19. The control group received the corresponding vehicle (PBS/PEG400/DMSO, 19:19:2). Food and water were provided ad libitum. Urine and Feces were collected separately at two intervals: 0–24 h and 24–48 h. All collected samples were subsequently stored in −80 °C.
# Fecal samples (0.4 g) were thawed on ice from −80 °C. The feces were mixed and homogenized with a pestle in 10 mL centrifuge tube with LCMS grade MeOH (2 mL), then centrifuged for 5 min at 10,000g. The supernatant was transferred to a separate 2 mL centrifuge tube and dried. The resulting feces were subjected to SPE C-18 (Supelco Discovery DSC-18Lt SPE Tube) by initially using 5 mL 18 LCMS grade water and subsequently eluted with LCMS grade MeOH. The organic eluant was collected and dried. The resulting feces mixture was filtered by size exclusion (Amicon Ultra Centrifugal Filter, 3 kDa MWCO). Then the solution was transferred to a sample vial with 300 μL insert and analyzed by Shimadzu HRMS 9030 Q-TOF. Urine samples were thawed on ice from −80 °C, vortexed for 5 s and blended in aliquots of 20 μL MeCN. The samples were vortexed for 15 s and centrifuged for 10 min at 10,000g. The supernatant was transferred to a clean microcentrifuge tube and diluted 10× with 80:20 H2O/MeCN. The resulting solution was filtered by size exclusion (Amicon Ultra Centrifugal Filter, 3 kDa MWCO) at 11k × g.
# 3. In vivo determination of metabolites from Xenograft models
# Table S1. In vivo metabolites of 10a and 10b and HPLC retention time (Rt).a
# 0 – 24 h (R t/min) 24 – 48 h (R t/min)
# Phase II metabolite urine feces urine feces
# glucoside <LOD <LOD <LOD <LOD […]
# [1] = urine 0–24 h after IP 1:1 mixture of 10a and 10b, total dose 30 mg/kg, HRMS
Structure (SMILES),"phase II metabolite in feces (feces 0–24 h, Table S1)","phase II metabolite in feces (feces 24–48 h, Table S1)",phase II metabolite in urine [1],"phase II metabolite in urine (urine 24–48 h, Table S1)"
CCc1cc(N)ccc1OC1OC(C(=O)O)C(O)C(O)C1O (centres unmarked) [Compound 14a],< LOD,< LOD,presence,< LOD
[2H]C([2H])([2H])C([2H])([2H])c1cc(N)ccc1OC1OC(C(=O)O)C(O)C(O)C1O (centres unmarked) [Compound 14b],< LOD,< LOD,presence,< LOD
